Assays:
recombinant human HDAC6 = recombinant human HDAC6 (Homo sapiens (Human), UniProt Q9UBN7); assay: Enzymatic screening, HDAC6 inhibition (fluorogenic FdL_G substrate); assay type: biochemical
Outline: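 Enzyme was preincubated with compound (8 doses, triplicate, 1% DMSO) in 25 mM Tris-HCl pH 8, 130 mM NaCl, 0.05% Tween-20, 10% glycerol, with BSA. A FLUOR DE LYS-Green substrate was then added, and fluorescence was read after developer plus 2 μM TSA.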

recombinant human HDAC1 = recombinant human HDAC1 (Homo sapiens (Human), UniProt Q13547); assay: Enzymatic screening, HDAC1 inhibition (fluorogenic FdL_G substrate); assay type: biochemical
Outline: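 Recombinant human HDAC1 inhibition was measured fluorometrically using the FLUOR DE LYS-Green (FdL_G) substrate. Compounds at 8 doses (1% DMSO final) in Tris-HCl pH 8 buffer with NaCl, Tween-20 and glycerol were preincubated in triplicate with enzyme and 1 mg/mL BSA, then given substrate. Developer I plus 2 μM TSA was added, and fluorescence read after 25 minutes in the dark.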

HDAC2 = HDAC2 (Homo sapiens (Human), UniProt Q92769); assay: Enzymatic screening, HDAC2 inhibition; assay type: biochemical
Procedure: (§1) For each test compound, 100× concentrated DMSO solutions at 8 doses were prepared and then diluted in assay buffer (25 mM Tris-HCl, pH 8, 130 mM NaCl, 0.05% Tween-20, 10% Glycerol) to obtain 5× concentrated solutions in relation to the final concentrations (typical final concentration range—6.4-200000 nM or 0.18-50000 nM, final DMSO content—1%). Then 10 μL solution of each test compound concentration were placed on a 96-well plate in triplicate and 15 μL of 3.33× concentrated enzyme solution in the assay buffer containing 3.33× concentrated BSA (final BSA concentration—2 mg/mL for HDAC4, HDAC5 and HDAC9 or 1 mg/mL for other isoforms) and in the case of HDAC6-3.33× concentrated TCEP (final TCEP concentration—200 μM) were added to each well. After a period of preincubation (incubation times and temperatures vary for different isoforms and are shown in table 1) 25 μL of solution containing the substrate were added. As substrate, FLUOR DE LYS® deacetylase substrate (Enzo Life Sciences, cat: BML-KI104, FdL), FLUOR DE LYS®-Green substrate (Enzo Life Sciences, cat: BML-KI572, FdL_G) or Boc-Lys(Tfa)-AMC (Bachem, cat: 4060676.005, Tfal)—2× concentrated solution in assay buffer were used. Following a reaction period (reaction times and temperatures vary for different isoforms and are reported in Table 1), 50 μL of the development solution consisting of concentrate FLUOR DE LYS® developer I (Enzo Life Sciences, ca: BML-KI105), diluted 200 times in buffer (50 mM Tris-HCl, pH 8, 137 mM NaCl, 2.7 mM KCl, 1 mM MgCl2) plus 2 μM TSA was added and, after 25 minutes at room temperature in the dark, using the Victor 1420 Multilabel Counter Perkin Elmer Wallac instrument, the fluorescence reading was carried out.

HDAC3 = HDAC3 (Homo sapiens (Human), UniProt O15379); assay: Enzymatic screening, HDAC3 inhibition; assay type: biochemical
Procedure: as §1

HDAC4 = HDAC4 (Homo sapiens (Human), UniProt P56524); assay: Enzymatic screening, HDAC4 inhibition; assay type: biochemical
Procedure: as §1

HDAC5 = HDAC5 (Homo sapiens (Human), UniProt Q9UQL6); assay: Enzymatic screening, HDAC5 inhibition; assay type: biochemical
Procedure: as §1

HDAC7 = HDAC7 (Homo sapiens (Human), UniProt Q8WUI4); assay: Enzymatic screening, HDAC7 inhibition; assay type: biochemical
Procedure: as §1

HDAC8 = HDAC8 (Homo sapiens (Human), UniProt Q9BY41); assay: Enzymatic screening, HDAC8 inhibition; assay type: biochemical
Procedure: as §1

HDAC9 = HDAC9 (Homo sapiens (Human), UniProt Q9UKV0); assay: Enzymatic screening, HDAC9 inhibition; assay type: biochemical
Procedure: as §1

HDAC10 = HDAC10 (Homo sapiens (Human), UniProt Q969S8); assay: Enzymatic screening, HDAC10 inhibition; assay type: biochemical
Procedure: as §1

HDAC11 = HDAC11 (Homo sapiens (Human), UniProt Q96DB2); assay: Enzymatic screening, HDAC11 inhibition; assay type: biochemical
Procedure: as §1

[1] = system: α-tubulin acetylation in 697 cell line; assay: In vitro α-tubulin acetylation in 697 cell line (ELISA); assay type: cell-based; conditions: 16 hours, read-out: fold increase @ 1 uM TubAc (ratio of acetylated tubulin and total tubulin towards control)
Procedure: The in vitro α-tubulin acetylation determination was evaluated on B 697 promyelocytic cell line.
The test molecules were diluted from 20 mM stock solution in DMSO with RPMI 10% FCS+0.01% DMSO medium at 20× concentration compared to the final concentration, added to the cells (15×10^6 cells in a total volume of 30 mL in RPMI medium 10% FCS+0.01% DMSO) to obtain the final concentrations of 1000, 333, 111, 37 nM and incubated at 37° C., 5% CO2 for 16 hours.
At the end of the incubation period, 5×10^6 cells were taken from each sample, centrifuged for 5 minutes at 1100 rpm and washed in 0.9% NaCl at 4° C. The resulting pellet was lysed by treating at 4° C. for 30 minutes with 150 μl of Complete Lysis-M buffer containing protease inhibitors (Complete Lysis-M Roche+Complete Tablets, Mini Easypack, cat: 4719956001) and phosphatase inhibitor cocktails (PhosStop Easypack, Roche, cat: 4906837001), then centrifuged 10 minutes at 14,000 rpm (20817×g). 0.3 μg of supernatant (total protein extract) were diluted in 100 μl of 1×PBS and immobilized in Maxisorp F96 NUN-IMMUNO Plate (Nunc MaxiSorp flat-bottom, Nunc, cat: 442404) at room temperature overnight. Plates were washed twice with Wash Buffer (PBS1×+0.005% tween 20) and saturated for 1 hour at room temperature with 300 μL of 1×PBS containing 10% FCS. After washing twice with Wash Buffer, the plates were incubated for two hours at room temperature in the presence of anti-acetylated-α-tubulin antibody (Monoclonal Anti-acetylated-tubulin clone 6-11B-1, mouse ascites fluid, Sigma, cat: T6793), 100 μl/well diluted 1:1000 in 1×PBS containing 10% FCS) or with total anti-α-tubulin antibody (Monoclonal Anti-alpha-tubulin produced in mouse, Sigma, cat: T6074). Following washing of the pates 5 times with Wash Buffer the secondary antibody conjugated with the enzyme HRP (Goat anti-Mouse IgG, IgM, IgA (H+L), Thermo Fisher Scientific, cat: A10668), diluted 1:1000 in 1×PBS+10% FBS was added at the volume of 100 μl/well.
After washing 4 times, 100 μl/well of TMB substrate kit was added for 10 minutes at room temperature in the dark. The reaction was stopped by adding 50 μl of 2N H2SO4. The plates were read at Multiskan Spectrum spectrophotometer at a wavelength of 450 nm.
The degree of acetylation was calculated by dividing the absorbance obtained for acetylated α-tubulin by the absorbance of total tubulin.
The results of tubulin acetylation, expressed as fold increase of ratio of acetylated α-tubulin/total α-tubulin, of each sample relative to the control sample (untreated) are summarized in table 6.

Stability in rat plasma = conditions: after 4 hours, 37° C.
Procedure: In order to evaluate the stability to circulating enzymes, test compounds were incubated in human and rat plasma at 37° C. in a thermostated oscillating bath. Each test compound was incubated at μM concentration (50 μM when the samples were analysed by UV/HPLC, 1 or 2 μM when the samples were analysed by LC-MS/MS) for 0, 15, 30 minutes and 1, 2 and 4 hours. The reaction was stopped placing samples on ice bath and adding acidified acetonitrile. After centrifugation (10 minutes at 14000 rpm) an aliquot of the supernatant was diluted with water, filtered with 0.45 μm regenerated cellulose syringe filters and injected in HPLC-UV or in LC-MS/MS. The percentage of the remaining amount at the various incubation times with respect to the initial amount were calculated. The half-life in plasma was also calculated.

[2] = Stability in human plasma; conditions: after 4 hours, 37° C.
[3] = Stability to Phase I metabolism in rat S9 liver fraction; conditions: after 90 minutes, 37° C.
[4] = Stability to Phase I metabolism in human S9 liver fraction; conditions: after 90 minutes, 37° C.

HDAC3, sequence (O15379 whole entry): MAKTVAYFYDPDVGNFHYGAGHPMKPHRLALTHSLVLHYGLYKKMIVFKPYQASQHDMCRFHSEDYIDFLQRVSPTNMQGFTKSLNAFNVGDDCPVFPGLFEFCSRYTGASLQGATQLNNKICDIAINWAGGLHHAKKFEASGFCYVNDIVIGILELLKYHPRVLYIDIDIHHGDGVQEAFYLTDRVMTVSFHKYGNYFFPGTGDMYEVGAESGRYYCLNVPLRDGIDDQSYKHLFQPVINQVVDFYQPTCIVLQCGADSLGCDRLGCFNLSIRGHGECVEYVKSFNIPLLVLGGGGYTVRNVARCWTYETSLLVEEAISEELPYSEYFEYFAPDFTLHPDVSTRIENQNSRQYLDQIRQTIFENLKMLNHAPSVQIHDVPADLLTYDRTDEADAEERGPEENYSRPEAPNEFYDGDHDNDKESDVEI
HDAC3, sequence (Q9Y618 395-489 partner): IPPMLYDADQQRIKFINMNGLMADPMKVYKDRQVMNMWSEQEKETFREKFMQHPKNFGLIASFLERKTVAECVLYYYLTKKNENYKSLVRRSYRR
recombinant human HDAC1, sequence (Q13547 whole entry): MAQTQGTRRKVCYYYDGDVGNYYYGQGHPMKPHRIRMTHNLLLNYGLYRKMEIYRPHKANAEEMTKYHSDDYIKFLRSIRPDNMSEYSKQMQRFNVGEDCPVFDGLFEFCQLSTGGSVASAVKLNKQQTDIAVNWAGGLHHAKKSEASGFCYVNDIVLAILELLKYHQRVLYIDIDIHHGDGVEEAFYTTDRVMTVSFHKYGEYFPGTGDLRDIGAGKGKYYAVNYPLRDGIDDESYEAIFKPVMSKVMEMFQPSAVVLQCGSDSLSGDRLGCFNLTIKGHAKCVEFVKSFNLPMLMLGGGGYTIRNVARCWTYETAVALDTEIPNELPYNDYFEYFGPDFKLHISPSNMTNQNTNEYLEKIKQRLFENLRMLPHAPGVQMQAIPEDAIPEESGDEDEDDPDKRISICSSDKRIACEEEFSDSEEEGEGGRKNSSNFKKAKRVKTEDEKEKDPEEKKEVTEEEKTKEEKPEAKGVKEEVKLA
HDAC2, sequence (Q92769 whole entry, canonical isoform): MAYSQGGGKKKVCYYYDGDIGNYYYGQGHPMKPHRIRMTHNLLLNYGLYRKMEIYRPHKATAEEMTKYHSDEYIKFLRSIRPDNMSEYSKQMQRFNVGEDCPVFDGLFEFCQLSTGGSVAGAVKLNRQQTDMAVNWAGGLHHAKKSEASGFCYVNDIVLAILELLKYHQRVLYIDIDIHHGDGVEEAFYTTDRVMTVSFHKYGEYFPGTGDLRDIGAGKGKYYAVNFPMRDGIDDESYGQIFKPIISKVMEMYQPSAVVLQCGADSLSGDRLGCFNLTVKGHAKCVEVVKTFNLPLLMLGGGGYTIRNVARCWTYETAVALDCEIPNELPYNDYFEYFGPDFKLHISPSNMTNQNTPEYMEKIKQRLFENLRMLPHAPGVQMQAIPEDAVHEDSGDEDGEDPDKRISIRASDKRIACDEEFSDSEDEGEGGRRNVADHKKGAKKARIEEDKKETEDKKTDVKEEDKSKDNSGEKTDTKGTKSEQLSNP
recombinant human HDAC6, sequence (Q9UBN7 whole entry): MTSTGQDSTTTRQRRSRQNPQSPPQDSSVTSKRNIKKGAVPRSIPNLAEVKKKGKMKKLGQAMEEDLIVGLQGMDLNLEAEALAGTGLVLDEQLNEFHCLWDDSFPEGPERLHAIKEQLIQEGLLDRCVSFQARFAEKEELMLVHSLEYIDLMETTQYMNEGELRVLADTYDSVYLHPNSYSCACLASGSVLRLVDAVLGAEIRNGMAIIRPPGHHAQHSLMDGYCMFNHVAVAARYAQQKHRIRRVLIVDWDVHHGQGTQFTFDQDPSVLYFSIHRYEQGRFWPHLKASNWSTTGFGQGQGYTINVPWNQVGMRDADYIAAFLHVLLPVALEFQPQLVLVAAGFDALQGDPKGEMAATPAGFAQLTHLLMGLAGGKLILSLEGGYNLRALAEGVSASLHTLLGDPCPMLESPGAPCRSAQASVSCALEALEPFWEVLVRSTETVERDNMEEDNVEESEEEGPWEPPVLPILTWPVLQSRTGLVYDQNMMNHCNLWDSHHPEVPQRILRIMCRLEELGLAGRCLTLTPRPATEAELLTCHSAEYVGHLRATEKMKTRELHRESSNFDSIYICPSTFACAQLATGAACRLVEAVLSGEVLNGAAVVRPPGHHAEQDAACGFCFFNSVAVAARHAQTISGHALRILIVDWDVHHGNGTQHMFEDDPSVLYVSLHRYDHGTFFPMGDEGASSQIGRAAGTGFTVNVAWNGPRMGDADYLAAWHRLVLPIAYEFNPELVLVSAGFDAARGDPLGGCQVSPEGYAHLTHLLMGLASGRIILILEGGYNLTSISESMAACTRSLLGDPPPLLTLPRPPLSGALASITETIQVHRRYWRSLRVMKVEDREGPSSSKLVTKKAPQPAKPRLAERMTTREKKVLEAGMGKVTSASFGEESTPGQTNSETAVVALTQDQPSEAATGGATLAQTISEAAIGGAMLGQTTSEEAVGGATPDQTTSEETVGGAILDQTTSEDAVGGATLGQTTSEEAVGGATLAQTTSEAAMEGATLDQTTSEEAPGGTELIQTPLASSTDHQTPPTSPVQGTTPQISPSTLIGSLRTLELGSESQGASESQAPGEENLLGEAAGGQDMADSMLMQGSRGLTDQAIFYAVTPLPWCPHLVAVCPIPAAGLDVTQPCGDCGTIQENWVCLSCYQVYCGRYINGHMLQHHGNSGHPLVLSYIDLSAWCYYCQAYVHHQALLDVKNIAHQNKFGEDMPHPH
HDAC4, sequence (P56524 whole entry): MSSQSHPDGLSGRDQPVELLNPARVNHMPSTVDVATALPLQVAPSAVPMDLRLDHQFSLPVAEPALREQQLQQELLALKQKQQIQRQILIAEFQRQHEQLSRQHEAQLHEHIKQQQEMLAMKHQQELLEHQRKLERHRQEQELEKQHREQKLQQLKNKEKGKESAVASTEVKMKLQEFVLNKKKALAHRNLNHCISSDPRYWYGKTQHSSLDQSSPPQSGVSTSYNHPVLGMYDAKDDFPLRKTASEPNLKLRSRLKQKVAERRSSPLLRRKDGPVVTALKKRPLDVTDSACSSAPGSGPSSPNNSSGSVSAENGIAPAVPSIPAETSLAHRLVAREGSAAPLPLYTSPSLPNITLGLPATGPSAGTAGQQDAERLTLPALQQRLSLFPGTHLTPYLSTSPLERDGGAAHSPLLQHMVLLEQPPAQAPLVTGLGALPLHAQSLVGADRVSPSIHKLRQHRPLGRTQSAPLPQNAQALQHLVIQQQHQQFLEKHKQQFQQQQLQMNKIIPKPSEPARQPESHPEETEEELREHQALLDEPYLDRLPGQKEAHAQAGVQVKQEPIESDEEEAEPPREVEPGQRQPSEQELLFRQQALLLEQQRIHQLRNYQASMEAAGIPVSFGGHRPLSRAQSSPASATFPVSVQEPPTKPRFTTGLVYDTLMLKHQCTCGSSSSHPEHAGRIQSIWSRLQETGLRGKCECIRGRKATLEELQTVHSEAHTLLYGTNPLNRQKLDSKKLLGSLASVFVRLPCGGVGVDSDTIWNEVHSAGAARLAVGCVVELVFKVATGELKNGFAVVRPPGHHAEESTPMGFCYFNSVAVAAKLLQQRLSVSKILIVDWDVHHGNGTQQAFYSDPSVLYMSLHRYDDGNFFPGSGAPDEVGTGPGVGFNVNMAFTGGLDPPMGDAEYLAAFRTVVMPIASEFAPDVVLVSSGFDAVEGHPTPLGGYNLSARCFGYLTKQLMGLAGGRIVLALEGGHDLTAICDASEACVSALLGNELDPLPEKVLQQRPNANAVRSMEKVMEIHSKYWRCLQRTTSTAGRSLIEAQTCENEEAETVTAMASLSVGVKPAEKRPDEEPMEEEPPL
HDAC10, sequence (Q969S8 whole entry): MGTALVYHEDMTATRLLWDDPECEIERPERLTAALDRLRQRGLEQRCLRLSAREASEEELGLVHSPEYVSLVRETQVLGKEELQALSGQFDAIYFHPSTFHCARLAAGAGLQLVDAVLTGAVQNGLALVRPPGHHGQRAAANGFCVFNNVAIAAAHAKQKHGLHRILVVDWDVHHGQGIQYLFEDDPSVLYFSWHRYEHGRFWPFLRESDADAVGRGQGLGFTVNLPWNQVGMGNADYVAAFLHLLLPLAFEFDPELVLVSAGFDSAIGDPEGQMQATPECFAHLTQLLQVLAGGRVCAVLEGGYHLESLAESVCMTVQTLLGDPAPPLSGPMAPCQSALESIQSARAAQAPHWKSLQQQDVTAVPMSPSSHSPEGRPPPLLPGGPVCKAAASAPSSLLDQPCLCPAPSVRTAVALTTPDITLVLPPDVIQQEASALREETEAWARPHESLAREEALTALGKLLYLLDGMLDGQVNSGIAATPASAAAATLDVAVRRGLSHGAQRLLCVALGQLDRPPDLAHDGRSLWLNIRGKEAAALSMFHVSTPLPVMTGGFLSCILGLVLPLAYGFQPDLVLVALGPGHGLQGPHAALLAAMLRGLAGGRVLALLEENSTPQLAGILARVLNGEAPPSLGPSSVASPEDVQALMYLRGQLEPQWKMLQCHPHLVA
HDAC11, sequence (Q96DB2 whole entry): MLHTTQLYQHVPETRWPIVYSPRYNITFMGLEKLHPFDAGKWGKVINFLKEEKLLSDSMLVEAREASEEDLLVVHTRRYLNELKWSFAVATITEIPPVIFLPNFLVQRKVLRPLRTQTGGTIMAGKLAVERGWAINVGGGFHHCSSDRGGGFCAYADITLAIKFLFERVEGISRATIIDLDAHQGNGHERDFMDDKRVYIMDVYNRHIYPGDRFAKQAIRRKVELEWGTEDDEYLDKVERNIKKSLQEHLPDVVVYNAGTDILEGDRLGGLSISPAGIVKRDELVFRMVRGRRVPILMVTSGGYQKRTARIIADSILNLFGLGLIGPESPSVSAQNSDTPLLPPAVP

## Nc1nc2ccc(-c3cn(Cc4ccc(-c5nnc(C(F)F)o5)cn4)nn3)cc2s1 [Compd. 1, 6-(1-((5-(5-(difluoromethyl)-1,3,4-oxadiazol-2-yl)pyridin-2-yl)methyl)-1H-1,2,3-triazol-4-yl)benzo[d]thiazol-2-amine]
Recombinant human HDAC6
  IC50: 0.007 µM
Recombinant human HDAC1
  IC50: > 200 µM
HDAC2
  IC50: > 30 µM
HDAC3
  IC50: > 30 µM
HDAC4
  IC50: > 30 µM
HDAC5
  IC50: > 30 µM
HDAC7
  IC50: > 30 µM
HDAC8
  IC50: > 200 µM
HDAC9
  IC50: > 30 µM
HDAC10
  IC50: > 30 µM
HDAC11
  IC50: > 30 µM
[1]
  fold induction at 1 µM: 25
Stability in rat plasma
  residual percentage in RAT PLASMA: 79%
[2]
  residual percentage in HUMAN PLASMA: 85%
[3]
  residual percentage in RAT S9 FRACTION: 96%
[4]
  residual percentage in HUMAN S9 FRACTION: 93%

## Cn1c(N)nc2cc(-c3cn(Cc4ccc(-c5nnc(C(F)F)o5)cc4)nn3)ccc21 [Compd. 23, 5-(1-(4-(5-(difluoromethyl)-1,3,4-oxadiazol-2-yl)benzyl)-1H-1,2,3-triazol-4-yl)-1-methyl-1H-benzo[d]imidazol-2-amine]
Recombinant human HDAC6
  IC50: 0.013 µM
Recombinant human HDAC1
  IC50: 30.3 µM
HDAC2
  IC50: > 30 µM
HDAC3
  IC50: 26.5 µM
HDAC4
  IC50: > 30 µM
HDAC5
  IC50: > 30 µM
HDAC7
  IC50: > 30 µM
HDAC8
  IC50: 0.565 µM
HDAC9
  IC50: > 30 µM
HDAC10
  IC50: > 30 µM
HDAC11
  IC50: > 30 µM
[1]
  fold induction at 1 µM: 31
Stability in rat plasma
  residual percentage in RAT PLASMA: 92%
[2]
  residual percentage in HUMAN PLASMA: 88%
[3]
  residual percentage in RAT S9 FRACTION: 96%
[4]
  residual percentage in HUMAN S9 FRACTION: 88%

## O=C(Nc1cccc(-c2cn(Cc3ccc(-c4nnc(C(F)F)o4)c(F)c3)nn2)c1)N1CCOCC1 [compound 16, N-(3-(1-(4-(5-(difluoromethyl)-1,3,4-oxadiazol-2-yl)-3-fluorobenzyl)-1H-1,2,3-triazol-4-yl)phenyl)morpholine-4-carboxamide]
Recombinant human HDAC6
  IC50: 0.029 µM
Recombinant human HDAC1
  IC50: > 200 µM
HDAC2
  IC50: > 30 µM
HDAC3
  IC50: > 30 µM
HDAC4
  IC50: > 30 µM
HDAC5
  IC50: > 30 µM
HDAC7
  IC50: > 30 µM
HDAC8
  IC50: > 200 µM
HDAC9
  IC50: > 30 µM
HDAC10
  IC50: > 30 µM
HDAC11
  IC50: > 30 µM
[1]
  fold induction at 1 µM: 19
Stability in rat plasma
  residual percentage in RAT PLASMA: 84%
[2]
  residual percentage in HUMAN PLASMA: 75%
[3]
  residual percentage in RAT S9 FRACTION: 88%
[4]
  residual percentage in HUMAN S9 FRACTION: 86%

## CCNc1nc2ccc(-c3cn(Cc4ccc(-c5nnc(C(F)F)o5)cn4)nn3)cc2[nH]1 [compound 18, 5-(1-((5-(5-(difluoromethyl)-1,3,4-oxadiazol-2-yl)pyridin-2-yl)methyl)-1H-1,2,3-triazol-4-yl)-N-ethyl-1H-benzo[d]imidazol-2-amine]
Recombinant human HDAC6
  IC50: 0.008 µM
Recombinant human HDAC1
  IC50: > 200 µM
HDAC2
  IC50: > 30 µM
HDAC3
  IC50: > 30 µM
HDAC4
  IC50: > 30 µM
HDAC5
  IC50: > 30 µM
HDAC7
  IC50: > 30 µM
HDAC8
  IC50: > 200 µM
HDAC9
  IC50: > 30 µM
HDAC10
  IC50: > 30 µM
HDAC11
  IC50: > 30 µM
[1]
  fold induction at 1 µM: 11
Stability in rat plasma
  residual percentage in RAT PLASMA: 69%
[2]
  residual percentage in HUMAN PLASMA: 84%
[3]
  residual percentage in RAT S9 FRACTION: 91%
[4]
  residual percentage in HUMAN S9 FRACTION: 82%

## O=C(Nc1cccc(-c2cn(Cc3ccc(-c4nnc(C(F)F)o4)cn3)nn2)c1)N1CCOCC1 [compound 6, N-(3-(1-((5-(5-(difluoromethyl)-1,3,4-oxadiazol-2-yl)pyridin-2-yl)methyl)-1H-1,2,3-triazol-4-yl)phenyl)morpholine-4-carboxamide]
Recombinant human HDAC6
  IC50: 0.013 µM
Recombinant human HDAC1
  IC50: > 200 µM
HDAC2
  IC50: > 30 µM
HDAC3
  IC50: > 30 µM
HDAC4
  IC50: > 30 µM
HDAC5
  IC50: > 30 µM
HDAC7
  IC50: > 30 µM
HDAC8
  IC50: > 200 µM
HDAC9
  IC50: > 30 µM
HDAC10
  IC50: > 30 µM
HDAC11
  IC50: > 30 µM
[1]
  fold induction at 1 µM: 19
Stability in rat plasma
  residual percentage in RAT PLASMA: 93%
[2]
  residual percentage in HUMAN PLASMA: 93%
[3]
  residual percentage in RAT S9 FRACTION: 93%
[4]
  residual percentage in HUMAN S9 FRACTION: 99%

## FC(F)c1nnc(-c2ccc(Cn3cnc(-c4ccc(NC5=NCCN5)cc4)c3)nc2)o1 [compound 20, N-(4-(1-((5-(5-(difluoromethyl)-1,3,4-oxadiazol-2-yl)pyridin-2-yl)methyl)-1H-imidazol-4-yl)phenyl)-4,5-dihydro-1H-imidazol-2-amine]
Recombinant human HDAC6
  IC50: 0.011 µM
Recombinant human HDAC1
  IC50: > 200 µM
HDAC2
  IC50: > 30 µM
HDAC3
  IC50: > 30 µM
HDAC4
  IC50: > 30 µM
HDAC5
  IC50: > 30 µM
HDAC7
  IC50: > 30 µM
HDAC8
  IC50: 578 µM
HDAC9
  IC50: > 30 µM
HDAC10
  IC50: > 30 µM
HDAC11
  IC50: > 30 µM
[1]
  fold induction at 1 µM: 11
Stability in rat plasma
  residual percentage in RAT PLASMA: 82%
[2]
  residual percentage in HUMAN PLASMA: 97%
[3]
  residual percentage in RAT S9 FRACTION: 93%
[4]
  residual percentage in HUMAN S9 FRACTION: 99%

Source: patent publication US20230286970A1, “NOVEL OXADIAZOLE-BASED SELECTIVE HDAC6 INHIBITORS” (ITALFARMACO S.P.A., priority 2020, published 2023)
